Data published in patent US20250214942A1, “INHIBITORS OF RECEPTOR INTERACTING PROTEIN KINASE I FOR THE TREATMENT OF DISEASE” (Board of Regents, The University of Texas System, priority 2019, published 2025).
pIC50: −log10 of the molar value.

What follows are compounds tested on human monocytic cell line U937 (assay: Human U937 cellular necroptosis assay (TNFalpha + z-VAD-FMK, Cell Titer-Glo viability)). Details: Homo sapiens, U-937, 22 h, U937 cells, 25 ng/mL human TNFalpha + 25 μM z-VAD-FMK, read-out: hU937 Avg IC50.
Type: cell-based
Description: The human monocytic cell line U937 (CRL-1593.2) was purchased from ATCC. The cells were routinely maintained in RPMI-1640 Medium (Gibco, Catalog #11875-093) supplemented with 10% heat inactivated fetal bovine serum (Gibco, Catalog #16140-071), 100 units/mL penicillin and 100 μg/mL streptomycin (Gibco, Catalog #15140-122), in a humidified incubator (37° C., 5% CO2). For the assay, cells were resuspended in RPMI-1640 phenol red free Media (Gibco, Catalog #11835-030) supplemented with 10% fetal bovine serum (Sigma, Catalog #F2442), 100 units/mL penicillin and 100 ug/mL streptomycin. Cells were stimulated with 25 ng/mL human TNFalpha (Cell Sciences, Catalog #CSI15659B) and 25 μM z-VAD-FMK (R&D Systems, Catalog #FMK001) followed by seeding 5000 cells per well in a volume of 40 μL to a white, CulturPlate-384 (Perkin Elmer, Catalog #6007680). Stock solutions of the test compounds were prepared in 100% DMSO (Sigma, Catalog #D2650) and serially diluted 1:3 using 100% DMSO. Compounds were additionally diluted 1:40 in assay medium, and 10 μL/well was transferred to the plate. Following the compound addition the plate was incubated at 37° C. and 5% CO2 for 22 h. After 22 h, viability was assessed with the addition of 20 μL of Cell Titer-Glo 2.0 (Promega, Catalog #G9243). The tissue culture plate was shaken on an orbital shaker at 300 RPM for 15 minutes at rt in the dark. Luminescence was measured using a PerkinElmer Envision™ plate reader. IC50 values were calculated using a four-parameter logistic curve fit using Genedata Screener software. Results are shown below in Table 3, where the average value across multiple runs is given.

Compound | pIC50
N#Cc1cnc(OCC23CC(C(=O)N4N=CCC4c4ccc(C(F)(F)F)cc4)(C2)C3)cn1 (stereo not shown) [Example 312, 5-((3-(5-(4-(trifluoromethyl)-phenyl)-4,5-dihydro-1H-pyrazole-1-carbonyl)bicyclo-[1.1.1]pentan-1-yl)methoxy)-pyrazine-2-carbonitrile] | 7.21
N#Cc1ccc(OCC23CC(C(=O)N4N=CCC4c4cc(F)c(Br)c(F)c4)(C2)C3)nc1 (stereo not shown) [Example 275, 6-((3-(5-(4-bromo-3,5-difluorophenyl)-4,5-dihydro-1H-pyrazole-1-carbonyl)-bicyclo[1.1.1]pentan-1-yl)-methoxy)nicotinonitrile] | 7.14
N#Cc1ccc2c(cnn2CC23CC(C(=O)N4N=CCC4c4nc(C#N)cs4)(C2)C3)c1 (stereo not shown) [Example 254, 2-(1-(3-((5-cyano-1H-indazol-1-yl)methyl)bicyclo[1.1.1]-pentane-1-carbonyl)-4,5-dihydro-1H-pyrazol-5-yl)-thiazole-4-carbonitrile] | 6.30
N#Cc1ccc2c(cnn2CC23CC(C(=O)N4C[C@@H](O)C[C@H]4c4cccc(F)c4)(C2)C3)c1 (single isomer, unassigned) [Example 262] | 5.33
N#Cc1cnc(OCC23CC(C(=O)N4N=CCC4c4cc(F)cc(F)c4)(C2)C3)c(Cl)c1 (stereo not shown) [Example 319, 5-chloro-6-((3-(5-(3,5-difluorophenyl)-4,5-dihydro-1H-pyrazole-1-carbonyl)-bicyclo[1.1.1]pentan-1-yl)-methoxy)nicotinonitrile] | 7.68
N#Cc1ccc(OCC23CC(C(=O)N4N=CCC4c4cc(F)c(CO)c(F)c4)(C2)C3)nc1 (stereo not shown) [Example 342, 6-((3-(5-(3,5-difluoro-4-(hydroxymethyl)phenyl)-4,5-dihydro-1H-pyrazole-1-carbonyl)bicyclo[1.1.1]pentan-1-yl)methoxy)nicotinonitrile] | 6.42
N#Cc1ccc2c(cnn2CC23CC(C(=O)N4C[C@H](O)C[C@H]4c4cccc(F)c4)(C2)C3)c1 (single isomer, unassigned) [Example 263] | 5.02
COc1ccc2c(cnn2CC23CC(C(=O)N4N=CCC4c4cc(F)cc(F)c4)(C2)C3)n1 (stereo not shown) [Example 215, (5-(3,5-difluorophenyl)-4,5-dihydro-1H-pyrazol-1-yl)(3-((5-methoxy-1H-pyrazolo[4,3-b]pyridin-1-yl)methyl)bicyclo-[1.1.1]pentan-1-yl)methanone] | 7.10
N#Cc1cnc(OCC23CC(C(=O)N4N=CCC4c4ccc(Cl)cc4)(C2)C3)cn1 (stereo not shown) [Example 310, 5-((3-(5-(4-chlorophenyl)-4,5-dihydro-1H-pyrazole-1-carbonyl)bicyclo[1.1.1]pentan-1-yl)methoxy)pyrazine-2-carbonitrile] | 7.66
N#Cc1ccc(OCC23CC(C(=O)N4N=CCC4c4ccccc4)(C2)C3)nc1 (stereo not shown) [Example 276, 6-((3-(5-phenyl-4,5-dihydro-1H-pyrazole-1-carbonyl)-bicyclo[1.1.1]pentan-1-yl)-methoxy)nicotinonitrile] | 7.12
Cc1cc(F)c(C2CC=NN2C(=O)C23CC(COc4cnc(C#N)cn4)(C2)C3)c(F)c1 (stereo not shown) [Example 304, 5-((3-(5-(2,6-difluoro-4-methylphenyl)-4,5-dihydro-1H-pyrazole-1-carbonyl)-bicyclo[1.1.1]pentan-1-yl)-methoxy)pyrazine-2-carbonitrile] | 8.22
Cc1ccc(C2CC=NN2C(=O)C23CC(COc4cnc(C#N)cn4)(C2)C3)nc1 (stereo not shown) [Example 278, 5-((3-(5-(5-methylpyridin-2-yl)-4,5-dihydro-1H-pyrazole-1-carbonyl)bicyclo[1.1.1]-pentan-1-yl)methoxy)pyrazine-2-carbonitrile] | 7.01
N#Cc1ccc2nn(CC34CC(C(=O)N5N=CCC5c5cncc(F)c5)(C3)C4)cc2c1 (stereo not shown) [Example 127, 2-((3-(5-(5-fluoropyridin-3-yl)-4,5-dihydro-1H-pyrazole-1-carbonyl)bicyclo[1.1.1]-pentan-1-yl)methyl)-2H-indazole-5-carbonitrile] | 5.90
